In patent publication EP1043979B1, “COMPOSITIONS FOR THE TRANSDERMAL AND DERMAL ADMINISTRATION OF BIOLOGICALLY ACTIVE AGENTS” (PULITZER ITALIANA S.r.l., priority 1997, dated 1999) one finds activity as enhancer and transdermal permeation data, which are given here for two compounds.

The nature of the data set: In vitro transdermal flux of nitroglycerin from TTS patches, Franz diffusion cells, HPLC of receiving medium. In kind it is in vitro ADME, human. From the text: The transdermal delivery devices employed in this example and in the following ones were produced according to the following procedure. A matrix layer containing the active substance, the adhesive and, when present, the permeation enhancer and the absorption assistant was obtained by uniformly spreading a solution of the components, with the proper concentration, viscosity and quantitative composition, on the silanised or fluorinated surface of a polyester protective layer. After evaporating the solvent at 70-80°C for 15-20 min. a final layer of a homogeneous thickness was obtained. weighing about 10 mg/cm^2 and having the desired composition. The composition had been preliminarily fixed taking into account the amount of solvent to be removed. During the above operation the adhesive employed underwent the required cross-linking reaction. […]
On the transdermal devices thus produced in vitro release tests were carried out, employing methods well known to this aim (Merrit e. Cooper, J. Controlled Release, 1984, 1, 161), that have been further developed more recently (Reifenrath et al., J. Pharm. Sci., 80, 1991, 526). […] The tested patches were applied to the exposed side of the skin, and the transdermal flux was measured by analysing (by HPLC) the receiving medium. […]

For `CC(=O)NCCO` [N-(2-hydroxyethyl)acetamide], the activity as enhancer result (N-(2-hydroxyethyl)acetamide alone, 3-7% in nitroglycerin TTS (Table 2)) is recorded as “does not possess any significant activity as enhancer”.
On to sorbitan monooleate, for which the transdermal permeation entry is “relative reduction of the transdermal permeation”.
